Drawing on PubChem BioAssay AID1918940 (Molecular Pharmacology Branch, DTP, NCI, 2023), this text covers viability, T/C and IC50 for 3 molecules.

The experiment has as its system NCI-H211 complex spheroid viability. As to the kind of experiment: Anticancer human tumor NCI-H211 cell line growth inhibition [LSD1].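 For all read-outs here: luminescent viability read after seven days of drug exposure.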 Conditions: for viability, T/C: stronger effect = lower value; for pIC50: curve of compound. An excerpt: Multicellular complex tumor spheroid response to LSD1 Inhibitor Iadademstat in combination with a variety of drugs and investigational agents in selected tumor cell lines
The current study was undertaken to assess response to LSD1 inhibitors in combination with standard-of-care drugs and investigational agents in solid tumor complex spheroid models as well as in the K-562 leukemia. Complex spheroids include a stromal component modeled by human endothelial cells (HUVEC) and fibroblasts modeled by human mesenchymal stem cells (MSCs). The concentration ranges selected for each drug and investigational agent were based upon clinically achievable concentrations if the clinical Cmax of the agent was known.
Compounds. The drugs and investigational agents used in this study are listed on Table 1. All of the agents used, including staurosporine (NSC755774) and gemcitabine (NSC613327), were obtained from the Developmental Therapeutics Program, NCI. FDA-approved anticancer drugs are available from the NCI at http://dtp.nci.nih.gov/branches/dscb/oncology_drugset_explanation.html. Drugs and investigational agents were >95% pure by proton nuclear magnetic resonance (NMR) and liquid chromatography/mass spectrometry (LC/MS). Stock solutions were prepared at 400x in DMSO, stored at -70 degrees C, and diluted in fresh medium prior to their use. The final concentration of DMSO in cell culture wells never exceeded 0.25% (v/v). The FDA-approved anticancer drug set is available from the Developmental Therapeutics Program at https://dtp.cancer.gov/organization/dscb/obtaining/available_plates.htm. All drugs and investigational agents were tested over a range starting from a high concentration at or near the clinical Cmax and decreasing in half-log increments. If the clinical Cmax for an agent had not been determined, the highest concentration tested was 10 microM.
Cell Lines. The patient-derived cancer cell (PDC) lines: 292921-168-R-J2-PDC, K24384-001-R-PDC, and 521955-158-R2-J5-PDC pancreatic carcinomas, 556581-035-R-J1 ovarian carcinoma, 324938-238-R-J1-PDC, 855422-203-R-J1-PDC and 883617-216-R-J1-PDC urothelial bladder carcinomas, 743489-274-T-PDC renal cell carcinoma, 138582-R-J1 Merkel cell tumor, K60290-347-R-J1 and K57222-313-R-J1-PDC glioblastomas, 653999-131-R-J2-PDC, LG0703-F948-PDC, and 349418-098-R-PDC non-small cell lung carcinomas, 885512-296-R-J2-PDC, 171881-019-R-J1-PDC breast carcinomas and 186277-243-T-J2-PDC and 233499-124-R-J2-PDC colon carcinomas were obtained from the NCI Patient-Derived Models Repository (PDMR, https://pdmr.cancer.gov). The established cell lines NCI/ADR-RES (RRID:CVCL_14520 and OVCAR-5 (RRID:CVCL_1628) ovarian carcinomas, 786-O (RRID:CVCL_1051) and A498 (RRID:CVCL_A498) renal cell carcinoma, NCI-H211 (ATCC, cat. CRL-5824; RRID:CVCL_1529), NCI-H196 (ATCC, cat. CRL-5823, RRID:CVCL_1509), SW 1271 (ATCC, cat. CRL-2177, RRID:CVCL_1716) and NCI-H1876 (ATCC, cat. CRL-5902, RRID:CVCL_1503) small cell lung carcinomas, MDA-MB-231 (RRID:CVCL_0062) and MDA-MB-468 (RRID:CVCL_0419)breast carcinomas (10-12). Pooled donor human umbilical vein endothelial cells (HUVEC, Lonza, cat. CC-2519) and human mesenchymal stem cells (hMSC, Lonza, cat. PT-2501) were purchased from Lonza (Walkersville, MD).
Cell Culture. All cells were maintained in an incubator at 37 degrees C and 5% CO2 with 95% humidity. The PDC lines were cultured according to standard operating procedures established by the NCI PDMR (https://pdmr.cancer.gov). Briefly all PDCs were thawed and cultured in Matrigel-coated flasks prepared with a working solution of 1X Ham's F-12 nutrient mix, without supplementation (Invitrogen, Waltham, MA, cat. 11765054), 100 U/mL penicillin-streptomycin (Invitrogen, cat. 15140122), and 2.5% Matrigel (Corning Inc., Corning, NY, cat. 354248) for the first three passages. […]

pIC50: −log10 of the molar value. Values joined by “and” are separate entries in the source; they are usually repeats but may differ in a detail not shown here. Identical values can stand only once.

As a reminder, the viability, T/C is the result in the treated group divided by that in the control group, in per cent. The term pIC50 denotes −log10 of the IC50, conventionally taken in molar units.

Consider `COc1cc(Nc2ncc3c(n2)-c2ccc(Cl)cc2C(c2c(F)cccc2OC)=NC3)ccc1C(=O)O`, for which the negative-log IC50 (pIC50) was > 8.50. In addition, the viability, T/C (compound 0.00316 µM) was 44.2% and 45.2%. The viability, T/C (compound 0.01 µM) was 8.97% and 8.03%. Where the note is “compound 0.0316 µM”, the viability, T/C is 5.37% and 3.95%. In addition, the viability, T/C (compound 0.1 µM) was 4.19% and 5.61%. Further, the viability, T/C (compound 0.316 µM) is 3.59% and 4.36%. Besides, the viability, T/C (compound 1 µM) is 3.38% and 3.29%.
As to `CC[C@@]1(O)C(=O)OCc2c1cc1n(c2=O)Cc2cc3c(CN(C)C)c(O)ccc3nc2-1`, the pIC50 was 9.35 and 9.34. Besides, where the note is “compound 0.000316 µM”, the viability, T/C was 66.6% and 67%. In addition, for the setting “compound 0.001 µM”, the viability, T/C is 11.4% and 13.2%. Also, the viability, T/C (compound 0.00316 µM) was 2.8% and 5.22%. The viability, T/C (compound 0.01 µM) was 2.3% and 5.28%. Moreover, the viability, T/C (compound 0.0316 µM) was 2.56% and 5.04%. Also, the viability, T/C (compound 0.1 µM) was 0.87% and 3.38%.
As to `Nc1ncn(C2CC(O)C(CO)O2)c(=O)n1` (stereo unspecified), the pIC50 was > 8.50. The viability, T/C (compound 0.00316 µM) was 35.4% and 37.7%. Moreover, the viability, T/C (compound 0.01 µM) was 21.4% and 19%. Besides, the viability, T/C (compound 0.0316 µM) is 9.11% and 7%. Further, where the note is “compound 0.1 µM”, the viability, T/C was 2.47% and 4.09%. Moreover, the viability, T/C (compound 0.316 µM) is 1.77% and 5.19%. For the same molecule, the viability, T/C (compound 1 µM) is 1.67% and 4.71%.
